Several values for one entry are separate records, joined by “and”; a condition that tells them apart may be missing. Identical values can stand only once.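 Following 48 hours of exposure in 96-well plates, responses at five concentrations were used to interpolate endpoints linearly. The concentration for 50% growth inhibition is given as GI50. At the TGI there is no net growth.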
Experiments:
Test in all cases: DTP human tumour cell line panel, 48 h
SN12C renal = test system: SN12C renal
HOP-92 NSCLC = test system: HOP-92 NSCLC
SR leukemia = test system: SR leukemia
HCT-15 colon = test system: HCT-15 colon
UACC-62 melanoma = test system: UACC-62 melanoma
NCI-H23 lung = test system: NCI-H23 lung
MOLT-4 leukemia = test system: MOLT-4 leukemia
NCI-H460 lung = test system: NCI-H460 lung
KM12 colon = test system: KM12 colon
HS 578T breast = test system: HS 578T breast
MALME-3M melanoma = test system: MALME-3M melanoma
A549 NSCLC = test system: A549 NSCLC
A498 renal = test system: A498 renal
NCI/ADR-RES ovarian = test system: NCI/ADR-RES ovarian
RXF 393 renal = test system: RXF 393 renal
T-47D breast = test system: T-47D breast
IGROV1 ovarian = test system: IGROV1 ovarian
HL-60(TB) leukemia = test system: HL-60(TB) leukemia
SK-MEL-28 melanoma = test system: SK-MEL-28 melanoma
EKVX NSCLC = test system: EKVX NSCLC
MDA-N = test system: MDA-N
PC-3 prostate = test system: PC-3 prostate
LOX IMVI melanoma = test system: LOX IMVI melanoma
MDA-MB-231 breast = test system: MDA-MB-231 breast
U251 CNS = test system: U251 CNS
DU-145 prostate = test system: DU-145 prostate
SNB-75 CNS = test system: SNB-75 CNS
MCF7 breast = test system: MCF7 breast
HT29 colon = test system: HT29 colon
SF-539 CNS = test system: SF-539 CNS
SK-OV-3 ovarian = test system: SK-OV-3 ovarian
UACC-257 melanoma = test system: UACC-257 melanoma
786-0 renal = test system: 786-0 renal
HCC-2998 colon = test system: HCC-2998 colon
COLO 205 colon = test system: COLO 205 colon
HCT-116 colon = test system: HCT-116 colon
OVCAR-8 ovarian = test system: OVCAR-8 ovarian
OVCAR-4 ovarian = test system: OVCAR-4 ovarian
TK-10 renal = test system: TK-10 renal
HOP-62 NSCLC = test system: HOP-62 NSCLC
OVCAR-5 ovarian = test system: OVCAR-5 ovarian
K-562 leukemia = test system: K-562 leukemia
ACHN renal = test system: ACHN renal
CAKI-1 renal = test system: CAKI-1 renal
SK-MEL-2 melanoma = test system: SK-MEL-2 melanoma
NCI-H522 lung = test system: NCI-H522 lung
SNB-19 CNS = test system: SNB-19 CNS
SF-268 CNS = test system: SF-268 CNS
SW-620 colon = test system: SW-620 colon
CCRF-CEM leukemia = test system: CCRF-CEM leukemia
MDA-MB-435 = test system: MDA-MB-435
UO-31 renal = test system: UO-31 renal
SK-MEL-5 melanoma = test system: SK-MEL-5 melanoma
RPMI-8226 leukemia = test system: RPMI-8226 leukemia
OVCAR-3 ovarian = test system: OVCAR-3 ovarian
M14 melanoma = test system: M14 melanoma
NCI-H226 lung = test system: NCI-H226 lung
SF-295 CNS = test system: SF-295 CNS

`COc1ccc2c(c1)n([O-])c1ccccc1[n+]2=O` was tested, and the TGI (SN12C renal) was > 100 µM, the TGI (HOP-92 NSCLC) was > 100 µM and the GI50 (SR leukemia) was 7.56 µM and 2.42 µM. The TGI (SR leukemia) was 59.6 µM and 12.2 µM, the TGI (HCT-15 colon) was > 100 µM and 37.3 µM and the TGI (UACC-62 melanoma) was > 100 µM and 65 µM. The TGI (NCI-H23 lung) was > 100 µM and 91.4 µM, the TGI (MOLT-4 leukemia) was > 100 µM and the GI50 (NCI-H460 lung) was 16.8 µM and 5.54 µM. The TGI (NCI-H460 lung) was > 100 µM and 34.3 µM, the TGI (KM12 colon) was > 100 µM and 46.2 µM and the GI50 (HS 578T breast) was > 100 µM and 30.4 µM. The TGI (HS 578T breast) was > 100 µM, the TGI (MALME-3M melanoma) was > 100 µM and 69.9 µM and the TGI (A549 NSCLC) was > 100 µM and 44.7 µM. For the same compound, the GI50 (A498 renal) was 82.6 µM and 18.3 µM, the TGI (A498 renal) was > 100 µM and 60.4 µM and the TGI (NCI/ADR-RES ovarian) was > 100 µM and 97.9 µM. The GI50 (RXF 393 renal) was 25 µM and 10.3 µM, the TGI (RXF 393 renal) was 81.2 µM and 34.8 µM and the TGI (T-47D breast) was > 100 µM and 22.6 µM. For the same compound, the TGI (IGROV1 ovarian) was 19.1 µM, the GI50 (HL-60(TB) leukemia) was 45.2 µM and 4.54 µM and the TGI (HL-60(TB) leukemia) was > 100 µM. For the same compound, the TGI (SK-MEL-28 melanoma) was > 100 µM, the TGI (EKVX NSCLC) was > 100 µM and 55.1 µM and the TGI (MDA-N) was > 100 µM. For the same compound, the GI50 (PC-3 prostate) was 91.9 µM and 28.3 µM, the TGI (PC-3 prostate) was > 100 µM and 73.1 µM and the GI50 (LOX IMVI melanoma) was 29.5 µM and 7.2 µM. For the same compound, the TGI (LOX IMVI melanoma) was > 100 µM and 31.6 µM, the TGI (MDA-MB-231 breast) was > 100 µM and the TGI (U251 CNS) was > 100 µM. The GI50 (DU-145 prostate) was 29.3 µM and 12.2 µM, the TGI (DU-145 prostate) was > 100 µM and the TGI (SNB-75 CNS) was > 100 µM. For the same compound, the GI50 (MCF7 breast) was 20.3 µM and 8.97 µM, the TGI (MCF7 breast) was > 100 µM and 36 µM and the TGI (HT29 colon) was > 100 µM. For the same compound, the GI50 (SF-539 CNS) was 46.5 µM and 17.4 µM, the TGI (SF-539 CNS) was > 100 µM and 45.9 µM and the TGI (SK-OV-3 ovarian) was 94.8 µM. For the same compound, the GI50 (UACC-257 melanoma) was 46.5 µM and 17.9 µM, the TGI (UACC-257 melanoma) was > 100 µM and 40.2 µM and the GI50 (786-0 renal) was 43 µM and 21.4 µM. For the same compound, the TGI (786-0 renal) was > 100 µM, the TGI (HCC-2998 colon) was > 100 µM and the TGI (COLO 205 colon) was > 100 µM and 74.7 µM. For the same compound, the TGI (HCT-116 colon) was > 100 µM, the TGI (OVCAR-8 ovarian) was > 100 µM and 55.7 µM and the TGI (OVCAR-4 ovarian) was 77.8 µM. For the same compound, the TGI (TK-10 renal) was > 100 µM, the TGI (HOP-62 NSCLC) was > 100 µM and the TGI (OVCAR-5 ovarian) was > 100 µM. For the same compound, the GI50 (K-562 leukemia) was 42.6 µM and 15.6 µM, the TGI (K-562 leukemia) was > 100 µM and the GI50 (ACHN renal) was 16.3 µM and 5.24 µM. The TGI (ACHN renal) was 41.5 µM and 47.3 µM, the GI50 (CAKI-1 renal) was 25.3 µM and 8 µM and the TGI (CAKI-1 renal) was > 100 µM and 27 µM. The TGI (SK-MEL-2 melanoma) was 74.7 µM and 54.5 µM, the TGI (NCI-H522 lung) was 53.4 µM and 32.1 µM and the GI50 (SNB-19 CNS) was 51.6 µM and 20 µM. The TGI (SNB-19 CNS) was > 100 µM and 89.6 µM, the GI50 (SF-268 CNS) was 31.5 µM and 15.2 µM and the TGI (SF-268 CNS) was > 100 µM and 53.7 µM. For the same compound, the TGI (SW-620 colon) was > 100 µM, the TGI (CCRF-CEM leukemia) was > 100 µM and the GI50 (MDA-MB-435) was 65.4 µM and 22.2 µM. For the same compound, the TGI (MDA-MB-435) was > 100 µM and 46.4 µM, the TGI (UO-31 renal) was 46 µM and 36.6 µM and the TGI (SK-MEL-5 melanoma) was 98.5 µM and 39.8 µM. For the same compound, the TGI (RPMI-8226 leukemia) was 97.1 µM and > 100 µM, the TGI (OVCAR-3 ovarian) was > 100 µM and 58.7 µM and the GI50 (M14 melanoma) was 62.1 µM and 7.9 µM. For the same compound, the TGI (M14 melanoma) was > 100 µM and 21.7 µM, the TGI (NCI-H226 lung) was 91.4 µM and 91.6 µM and the TGI (SF-295 CNS) was > 100 µM and 48.6 µM.
